≈ marks a conversion by molar mass, not a printed value.
Experiments:
Type in all cases: cell-based
Porphyromonas gingivalis [1] = assay: MBC (Minimum bactericidal concentration), plating on blood agar; settings: P. gingivalis, lowest concentration killing at least 99.9% of initial inoculum, plates 48 hours at 37° C.
Method: (§1) In vitro tests were conducted with a gram positive supragingival plaque bacterium, Streptococcus mutans. In addition, two subgingival plaque bacteria associated with oral malodor were tested, Porphyromonas gingivalis and Fusobacterium nucleatum. The MIC (Minimum Inhibitory Concentrations) study protocol is as follows. Chlorhexidine was used as a positive control and sterile water was used as a negative control. Citral was suspended in 10% methanol with 3.8% Tween 80. […] 96 well microtiter plates were used for this study. Each well contained 5×10^5 colony forming units/ml of bacteria, serially diluted agents and bacterial growth medium. All bacterial cultures were incubated at 37° C. and stationary. Bacterial growth was estimated spectrophotometrically at 660 nm, after 48 hours. The MIC for each test bacteria was defined as the minimum concentration of test compound limiting turbidity to[…]. The MBC (Minimum bactericidal concentrations) were determined using the 96 well microtiter plate serial dilutions as described above for MIC studies. Serial dilution of cultures in wells showing no visible growth were performed and 10 microliters of culture were plated in triplicate on blood agar plates. Viable colonies were scored after incubation of the plates for 48 hours at 37° C. For each test bacterium, the number of CFU/ml were determined in the initial inoculum. The MBC was defined as the lowest concentration of a test compound that killed at least 99.9% of the cells present in the initial inoculum.

Fusobacterium nucleatum [2] = assay: as above; settings: F. nucleatum, lowest concentration killing at least 99.9% of initial inoculum, plates 48 hours at 37° C.
Method: as §1

Porphyromonas gingivalis [3] = assay: MIC (Minimum Inhibitory Concentration) study, 96 well microtiter plate; settings: P. gingivalis, 5×10^5 CFU/ml, 37° C., turbidity at 660 nm after 48 hours
Method: (§2) In vitro tests were conducted with a gram positive supragingival plaque bacterium, Streptococcus mutans. In addition, two subgingival plaque bacteria associated with oral malodor were tested, Porphyromonas gingivalis and Fusobacterium nucleatum. The MIC (Minimum Inhibitory Concentrations) study protocol is as follows. Chlorhexidine was used as a positive control and sterile water was used as a negative control. Citral was suspended in 10% methanol with 3.8% Tween 80. […] 96 well microtiter plates were used for this study. Each well contained 5×10^5 colony forming units/ml of bacteria, serially diluted agents and bacterial growth medium. All bacterial cultures were incubated at 37° C. and stationary. Bacterial growth was estimated spectrophotometrically at 660 nm, after 48 hours. The MIC for each test bacteria was defined as the minimum concentration of test compound limiting turbidity to<absorbance at 660 nm.

Fusobacterium nucleatum [4] = assay: as above; settings: F. nucleatum, 5×10^5 CFU/ml, 37° C., turbidity at 660 nm after 48 hours
Method: as §2

Streptococcus mutans = assay: as above; settings: S. mutans, 5×10^5 CFU/ml, 37° C., turbidity at 660 nm after 48 hours
Method: as §2

Row | MIC (Porphyromonas gingivalis [3]) | MIC (Fusobacterium nucleatum [4]) | MIC (Streptococcus mutans) | Compound | MBC (Porphyromonas gingivalis [1]) | MBC (Fusobacterium nucleatum [2])
1 | 1.25 µg/mL (≈ 2.47 µM) | 1.25 µg/mL (≈ 2.47 µM) | – | [H]/N=C(\N/C(=N/[H])NCCCCCCNC(=N)NC(=N)Nc1ccc(Cl)cc1)Nc1ccc(Cl)cc1 [Cholorhexidine, Chlorhexidine, reference compound] | 1.25 µg/mL (≈ 2.47 µM) | 1.25 µg/mL (≈ 2.47 µM)
2 | 62.5 µg/mL (≈ 411 µM) | 15.6 µg/mL (≈ 102 µM) | 500 µg/mL (≈ 3280 µM) | CC(C)=CCCC(C)=CC=O [citral] | 125 µg/mL (≈ 821 µM) | 31.3 µg/mL (≈ 206 µM)

Reference: US20040253190A1, “Breath Freshening and Oral Cleansing Product Using Citral” (priority 2002, published 2004)
